These results are taken from US8906901B2, “Administration of dipeptidyl peptidase inhibitors” (priority 2005, dated 2014).

The subject of this assay is db/db (BKS.Cg—+Lepr^db/+Lepr^db) mice. Put plainly: Plasma glucose after 21 days of administration in powder chow, alone or with pioglitazone. The class given is in vivo. The settings on record: male db/db mice, 21 days in chow, fed condition; 0.03% (w/w) succinate salt of Compound I and/or 0.0075% (w/w) pioglitazone hydrochloride; mean (n=7) ± SD. An excerpt:
Male db/db (BKS.Cg—+Lepr^db/+Lepr^db) mice (6 weeks of age, CLEA Japan (Tokyo, Japan)) were divided into 4 groups (n=7 in each group) comprising Group A to Group D. Group A had free access to CE-2 powder chow (CLEA Japan) for 21 days. […] During 21 days of administration of the powder chow, there were not significant differences in the administration amount of the powder chow in the above 4 groups. After 21 days of administration of the powder chow, blood samples were taken from the orbital veins of the mice by capillary pipette under feeding condition, and plasma glucose levels were enzymatically measured by using Autoanalyzer 7080 (Hitachi, Japan). The values in the table means average (n=7)±standard deviation.

As to `Cn1c(=O)cc(N2CCC[C@@H](N)C2)n(Cc2cc(F)ccc2C#N)c1=O` [Compound I, 2-[6-(3-Amino-piperidin-1-yl)-3-methyl-2,4-dioxo-3,4-dihydro-2H-pyrimidin-1-ylmethyl]-4-fluoro-benzonitrile], the “Plasma Glucose” value was found to be 410.3 ± 47.9 mg/dL.
